Like-named read-outs stand apart in the source and are kept apart here.
Legend:
[1] = system: phosphorylation of AKT in HCC70 cells; experiment: Cellular assay: phosphorylation of AKT in HCC70 cells (western blotting); type: cell-based; details: Homo sapiens, HCC70, 1 h, HCC70 cells, compound 500 nM, 60 min, inhibition of Akt activity from band intensities
Outline: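 HCC70 cells treated with compound at 500 nM (0.1% DMSO control) for 60 min at 37 °C; pAKT Ser473 and Thr308 plus total AKT measured by western blot with fluorescent detection. Inhibition from band intensities, binned as + (20–60%), ++ (60–80%), +++ (80–90%), ++++ (>90%).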

PIK3Ca_h = target: T1, PIK3Ca_h (Homo sapiens, UniProt P42336); experiment: Enzyme binding assay (KINOMEscan); details: Eurofins DiscoveRx
T1 construct: purchased Eurofins DiscoveRx Corporation
T1 sequence (P42336 whole entry): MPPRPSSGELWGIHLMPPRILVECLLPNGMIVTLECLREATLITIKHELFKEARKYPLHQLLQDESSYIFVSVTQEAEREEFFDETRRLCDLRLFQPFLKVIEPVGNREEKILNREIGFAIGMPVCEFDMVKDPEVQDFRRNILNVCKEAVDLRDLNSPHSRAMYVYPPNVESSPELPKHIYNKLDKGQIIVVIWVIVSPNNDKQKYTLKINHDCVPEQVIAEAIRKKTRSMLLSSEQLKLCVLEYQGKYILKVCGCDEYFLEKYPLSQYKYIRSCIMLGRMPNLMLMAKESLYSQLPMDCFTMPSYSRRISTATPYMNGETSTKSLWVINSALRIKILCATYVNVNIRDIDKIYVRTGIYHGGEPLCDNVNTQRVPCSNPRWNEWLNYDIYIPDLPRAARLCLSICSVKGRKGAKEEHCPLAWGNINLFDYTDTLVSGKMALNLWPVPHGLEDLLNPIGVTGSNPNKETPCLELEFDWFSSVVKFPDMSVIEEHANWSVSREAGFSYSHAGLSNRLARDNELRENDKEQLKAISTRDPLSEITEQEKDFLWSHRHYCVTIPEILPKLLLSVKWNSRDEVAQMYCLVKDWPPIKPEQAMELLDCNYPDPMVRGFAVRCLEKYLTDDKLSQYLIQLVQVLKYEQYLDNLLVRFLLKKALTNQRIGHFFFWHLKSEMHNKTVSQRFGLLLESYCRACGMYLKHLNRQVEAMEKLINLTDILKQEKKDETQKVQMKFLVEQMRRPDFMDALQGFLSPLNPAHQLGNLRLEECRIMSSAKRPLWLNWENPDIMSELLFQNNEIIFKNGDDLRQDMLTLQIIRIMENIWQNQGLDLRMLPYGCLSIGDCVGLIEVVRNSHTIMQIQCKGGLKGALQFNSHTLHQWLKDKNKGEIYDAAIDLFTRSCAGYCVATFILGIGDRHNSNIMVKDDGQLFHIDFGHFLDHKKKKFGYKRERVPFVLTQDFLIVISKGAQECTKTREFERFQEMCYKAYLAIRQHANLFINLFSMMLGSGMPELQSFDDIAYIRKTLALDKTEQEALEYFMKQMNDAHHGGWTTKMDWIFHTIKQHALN
Experimental: (§1) Kinase enzyme binding affinities of compounds disclosed herein were determined using the KINOMEscan technology performed by Eurofins DiscoveRx Corporation, San Diego, California, USA (www.eurofinsdiscoveryservices.com). Table 2 reports the obtained PIK3β Kd values (nM) of, with the PIK3β Kd being the inhibitor binding constant. Table 3 reports the obtained Kd values (nM), with the Kd being the inhibitor binding constant: […]

PIK3Cg_h = target: T2, PIK3Cg_h (Homo sapiens, UniProt P48736); experiment: Enzyme binding assay (KINOMEscan); details: Eurofins DiscoveRx
T2 construct: purchased Eurofins DiscoveRx Corporation
T2 sequence (P48736 whole entry): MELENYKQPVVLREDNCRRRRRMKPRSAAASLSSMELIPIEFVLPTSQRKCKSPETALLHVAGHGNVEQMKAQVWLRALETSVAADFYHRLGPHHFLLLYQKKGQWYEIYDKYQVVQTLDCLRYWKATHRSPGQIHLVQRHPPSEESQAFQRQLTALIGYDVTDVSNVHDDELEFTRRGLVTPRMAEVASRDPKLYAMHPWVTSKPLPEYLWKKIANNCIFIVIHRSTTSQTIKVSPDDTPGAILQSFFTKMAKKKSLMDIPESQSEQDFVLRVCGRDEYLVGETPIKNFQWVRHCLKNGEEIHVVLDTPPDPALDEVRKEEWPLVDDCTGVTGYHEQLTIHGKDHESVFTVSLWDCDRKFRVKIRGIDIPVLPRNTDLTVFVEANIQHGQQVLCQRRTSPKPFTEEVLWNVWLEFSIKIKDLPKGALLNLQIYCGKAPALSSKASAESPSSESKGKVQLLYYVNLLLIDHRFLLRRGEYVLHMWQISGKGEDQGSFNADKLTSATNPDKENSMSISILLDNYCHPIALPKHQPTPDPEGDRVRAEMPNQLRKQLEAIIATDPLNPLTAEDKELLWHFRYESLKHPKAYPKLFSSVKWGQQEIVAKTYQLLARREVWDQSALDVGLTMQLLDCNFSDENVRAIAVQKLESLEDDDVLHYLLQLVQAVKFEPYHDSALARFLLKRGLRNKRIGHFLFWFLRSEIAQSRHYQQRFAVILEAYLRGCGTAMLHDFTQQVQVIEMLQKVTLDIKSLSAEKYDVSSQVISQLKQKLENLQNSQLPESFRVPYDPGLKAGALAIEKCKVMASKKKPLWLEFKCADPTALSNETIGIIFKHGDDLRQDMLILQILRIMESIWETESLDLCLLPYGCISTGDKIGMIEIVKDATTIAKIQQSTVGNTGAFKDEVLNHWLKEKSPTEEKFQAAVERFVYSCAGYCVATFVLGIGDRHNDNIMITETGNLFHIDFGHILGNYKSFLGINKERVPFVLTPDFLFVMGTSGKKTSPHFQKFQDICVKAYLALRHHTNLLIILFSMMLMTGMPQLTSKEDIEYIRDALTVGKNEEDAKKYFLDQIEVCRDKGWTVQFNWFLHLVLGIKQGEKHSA
Experimental: as §1

PIK3Cd_h = target: T3, PIK3Cd_h (Homo sapiens, UniProt O00329); experiment: Enzyme binding assay (KINOMEscan); details: Eurofins DiscoveRx
T3 construct: purchased Eurofins DiscoveRx Corporation
T3 sequence (O00329 1-1044): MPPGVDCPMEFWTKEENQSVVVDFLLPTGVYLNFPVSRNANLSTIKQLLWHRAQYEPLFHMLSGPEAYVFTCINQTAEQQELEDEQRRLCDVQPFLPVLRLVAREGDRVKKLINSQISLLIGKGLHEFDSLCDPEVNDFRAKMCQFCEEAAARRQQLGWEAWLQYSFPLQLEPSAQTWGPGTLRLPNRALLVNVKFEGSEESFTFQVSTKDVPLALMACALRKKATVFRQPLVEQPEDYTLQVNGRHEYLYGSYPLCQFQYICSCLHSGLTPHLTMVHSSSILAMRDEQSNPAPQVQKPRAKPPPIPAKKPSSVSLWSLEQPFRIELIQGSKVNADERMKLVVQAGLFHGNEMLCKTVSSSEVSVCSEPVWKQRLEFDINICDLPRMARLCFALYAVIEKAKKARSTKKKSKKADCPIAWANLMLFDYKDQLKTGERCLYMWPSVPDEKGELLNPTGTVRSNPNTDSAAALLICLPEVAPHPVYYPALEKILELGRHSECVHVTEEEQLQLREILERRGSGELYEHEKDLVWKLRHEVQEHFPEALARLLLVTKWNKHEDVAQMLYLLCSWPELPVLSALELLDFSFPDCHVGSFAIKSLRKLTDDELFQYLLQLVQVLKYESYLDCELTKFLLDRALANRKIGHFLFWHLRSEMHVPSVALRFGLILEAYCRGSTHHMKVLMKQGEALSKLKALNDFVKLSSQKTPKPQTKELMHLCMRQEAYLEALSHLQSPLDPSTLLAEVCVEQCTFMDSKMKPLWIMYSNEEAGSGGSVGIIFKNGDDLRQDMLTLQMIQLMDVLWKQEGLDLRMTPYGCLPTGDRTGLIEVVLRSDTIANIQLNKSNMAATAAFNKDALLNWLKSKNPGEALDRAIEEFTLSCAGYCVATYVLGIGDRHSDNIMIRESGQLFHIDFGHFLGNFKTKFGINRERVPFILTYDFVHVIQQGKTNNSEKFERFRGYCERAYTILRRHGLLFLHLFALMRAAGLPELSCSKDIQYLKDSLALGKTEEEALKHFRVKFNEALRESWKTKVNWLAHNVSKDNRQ
Experimental: as §1

PIK3Cb_h = target: T4, PIK3Cb_h (Homo sapiens, UniProt P42338); experiment: Enzyme binding assay (KINOMEscan); details: Eurofins DiscoveRx
T4 construct: purchased Eurofins DiscoveRx Corporation
T4 sequence (P42338 whole entry): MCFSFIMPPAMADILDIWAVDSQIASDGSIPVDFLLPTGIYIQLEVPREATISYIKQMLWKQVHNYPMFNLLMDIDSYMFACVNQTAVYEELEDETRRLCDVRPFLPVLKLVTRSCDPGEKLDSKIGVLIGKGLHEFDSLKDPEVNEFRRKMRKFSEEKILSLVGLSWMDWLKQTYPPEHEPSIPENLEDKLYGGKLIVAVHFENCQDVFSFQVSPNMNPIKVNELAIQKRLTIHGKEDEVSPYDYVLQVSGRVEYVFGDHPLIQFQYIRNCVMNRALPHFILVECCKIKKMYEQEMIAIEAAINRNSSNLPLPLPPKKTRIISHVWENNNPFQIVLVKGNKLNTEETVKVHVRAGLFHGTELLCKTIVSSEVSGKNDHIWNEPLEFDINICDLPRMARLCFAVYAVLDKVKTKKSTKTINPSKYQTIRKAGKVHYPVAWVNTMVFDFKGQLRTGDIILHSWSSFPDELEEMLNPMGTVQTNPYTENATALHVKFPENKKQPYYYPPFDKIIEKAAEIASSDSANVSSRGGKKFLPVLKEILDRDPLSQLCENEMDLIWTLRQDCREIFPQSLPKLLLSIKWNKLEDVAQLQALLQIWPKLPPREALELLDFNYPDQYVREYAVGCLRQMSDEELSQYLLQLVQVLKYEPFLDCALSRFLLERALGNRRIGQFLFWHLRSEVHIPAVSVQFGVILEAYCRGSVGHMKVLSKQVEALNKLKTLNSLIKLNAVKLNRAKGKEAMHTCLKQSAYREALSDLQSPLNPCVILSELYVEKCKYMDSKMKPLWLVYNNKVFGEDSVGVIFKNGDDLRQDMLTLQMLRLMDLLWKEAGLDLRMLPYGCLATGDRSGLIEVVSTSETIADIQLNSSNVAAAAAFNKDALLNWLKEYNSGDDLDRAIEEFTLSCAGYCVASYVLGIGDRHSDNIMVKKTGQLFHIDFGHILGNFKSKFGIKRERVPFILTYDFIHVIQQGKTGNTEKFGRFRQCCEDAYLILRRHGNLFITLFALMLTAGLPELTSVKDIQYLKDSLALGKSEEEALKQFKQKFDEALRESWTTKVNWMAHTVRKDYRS
Experimental: as §1

[2] = read-out: Index of AI (HCC70) p-AKT Thr 308
[3] = read-out: Index of AI (HCC70) p-AKT ser 473

Kd (PIK3Ca_h) [nM]	Kd (PIK3Cg_h) [nM]	Kd (PIK3Cd_h) [nM]	Kd (PIK3Cb_h) [nM]	Compound	inhibition at 0.5 µM [1, 2] [%]	inhibition at 0.5 µM [1, 3] [%]
3.2	87	1.5	0.075	C[C@@H]1CN(c2cc(=O)c3cc(C(=O)N(C)C)cc(CN4CCc5c(F)cc(F)cc54)c3o2)CCO1 [Compound 90, (R)-8-((4,6-difluoroindolin-1-yl)methyl)-N,N-dimethyl-2-(2-methylmorpholino)-4-oxo-4H-chromene-6-carboxamide]	> 90	> 90
22	230	7.4	1	C[C@@H]1CN(c2cc(=O)c3cc(C(=O)N(C)C)cc(CN4CCc5c(F)cccc54)c3o2)CCO1 [Compound 91, (R)-8-((4-fluoroindolin-1-yl)methyl)-N,N-dimethyl-2-(2-methylmorpholino)-4-oxo-4H-chromene-6-carboxamide]	> 90	> 90

Source: patent US20240166617A1, “PHOSPHOINOSITIDE 3 KINASE BETA INHIBITORS AND COMPOSITIONS AND METHODS THEREOF” (Geode Therapeutics Inc., priority 2021, published 2024)
